Measurements from patent US10071083B2 (Ovid Therapeutics Inc., priority 2017, dated 2018).

Experiments:
tinnitus = settings: published studies reviewed by Jufas and Wood (2015); cited from earlier work
[1] = system: healthy adults subjected to a 5-hour sleep restriction; assay: Study of daytime performance after sleep restriction (Example 4); assay type: in vivo, human
Description: The study included a 2-night single-blind placebo run-in period, a 4-night double-blind treatment period during which sleep was restricted to 5 hours and a 2-night single-blind placebo run-out period. The study included healthy male and female volunteers 18 to <55 years of age.
2-night run-in period: All patients received placebo
2-night run-out period: All patients received placebo
The primary endpoints included observations based on the Multiple Sleep Latency Test (MSLT) and Slow Wave Sleep (SWS) assessment.

[2] = human, in vivo
patients = patients with a history of drug abuse who received gaboxadol; cited from earlier work
[3] = system: healthy, male and female subjects; assay: Study of driving performance after gaboxadol administration (Example 3); assay type: in vivo, human
Text: The study participants included healthy, male and female subjects between 21 and 45 years of age, with a valid drivers license for at least 3 years.
Following a cognitive and psychomotor test battery, the driving test started at 9 am and lasted for one hour.

O=C1CN=C(c2ccccc2Cl)c2cc([N+](=O)[O-])ccc2N1 [Clonazepam]
efficacy in treating tinnitus (tinnitus): effective

Cc1nnc2n1-c1ccc(Cl)cc1C(c1ccccc1)=NC2 [alprazolam]
efficacy in treating tinnitus (tinnitus): opposing results

CN1C(=O)CN=C(c2ccccc2)c2cc(Cl)ccc21 [diazepam]
efficacy in treating tinnitus (tinnitus): not effective

Oc1noc2c1CCNC2 [gaboxadol, 4,5,6,7-tetrahydroisoxazolo [5,4-c]pyridine-3-ol]
biophysiological measures of stress (heart rate variability, cortisol levels, catecholamine levels, body temperature) versus placebo ([1]; gaboxadol 15 mg versus placebo): no differences
daytime performance, effect sizes of the neurocognitive battery ([1]; gaboxadol 15 mg versus placebo): no strong evidence that gaboxadol improves daytime performance
daytime sleepiness during the Sleep Restriction period versus placebo (MSLT) ([1]; gaboxadol 15 mg, 4 nights, sleep restricted to 5 hours, p=0.047, 1 sided): significantly less daytime sleepiness
MSLT longer than placebo, on average ([1]; gaboxadol 15 mg, last two Sleep Restriction days): 2.01 min
Karolinska Sleepiness Score (KSS) less than placebo, on average ([1]; gaboxadol 15 mg, last two Sleep Restriction days, LDA model, p=0.058, 1 sided): 0.68
SWS longer than placebo, on average ([1]; gaboxadol 15 mg, last two Sleep Restriction nights): 20.53 min
slow wave sleep (SWS) during the Sleep Restriction period versus placebo ([1]; gaboxadol 15 mg, p<0.001, 1 sided): significantly more SWS
CL (in the CL/F line) ([2]; iv, 10 mg): 438 mL/min
dose dependence of plasma AUC0-∞ and Cmax ([2]; po): dose proportional increases
psychiatric adverse events (patients): steep increase
most frequent adverse events, middle-of-the-night treatment ([3]; gaboxadol 15 mg at 4 am): dizziness, nausea and somnolence
effect on driving after evening dose compared with blood alcohol ([3]; gaboxadol 15 mg evening dose, comparison with 0.05% blood alcohol concentration): less than the effect observed at a 0.05% blood alcohol concentration
most frequent adverse events, evening treatment ([3]; gaboxadol 15 mg in the evening): headache and somnolence
